The source made the active and inactive calls. The rule behind the calls is not given here.
molecular target: Induced myeloid leukemia cell differentiation protein Mcl-1 (Homo sapiens) (UniProt Q07820); assay: modulators of Bim peptide binding to Mcl-1, dose response, biochemical, bead-based flow cytometry, multiplexed, human (AID 1329); details: Bim peptide-Mcl-1 binding, MCF
Sequence (Q07820 whole entry, looked up): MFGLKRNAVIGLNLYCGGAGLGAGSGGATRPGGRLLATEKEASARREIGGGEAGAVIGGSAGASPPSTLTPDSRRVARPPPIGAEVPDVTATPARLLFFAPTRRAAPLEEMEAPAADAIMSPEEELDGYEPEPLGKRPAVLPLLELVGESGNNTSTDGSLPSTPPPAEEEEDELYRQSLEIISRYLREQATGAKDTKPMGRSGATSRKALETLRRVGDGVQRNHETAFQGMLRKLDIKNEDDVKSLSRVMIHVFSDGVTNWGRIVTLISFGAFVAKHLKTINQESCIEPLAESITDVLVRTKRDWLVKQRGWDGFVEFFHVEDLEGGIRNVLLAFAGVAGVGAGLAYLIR

Percent span, inactive:
COc1cccc(C(=O)/C=C/Nc2ccc(S(=O)(=O)Nc3onc(C)c3C)cc2)c1, CCOc1ccccc1C(=O)NC1CC2CCCC(C1)N2C1CC1 (centres undefined), C=CS(=O)(=O)c1sc(Cl)c(N2CCOCC2)c1[N+](=O)[O-], Cc1cccn2c(=O)c3cc(C(N)=S)c(=N)n(CCCN4CCOCC4)c3nc12, Nc1ccc(C2=Nc3cccc4cccc(c34)N2)cc1, COc1ccc(OC)c(NC(=O)COC(=O)c2cc3c(s2)CCC3)c1, COc1cc(N=c2ssnc2Cl)cc(OC)c1, O=C(NNC(=O)C12CC3CC(CC(C3)C1)C2)c1ccco1, CN(Cc1ccccc1)C(=O)c1[nH]cnc1C(=O)N[C@@H](CCCCNC(=O)OC(C)(C)C)C(=O)OC(C)(C)C, CCN1CCN(c2cc(C)c3cc(NC(=S)N4CC(C)CC(C)C4)ccc3n2)CC1 (centres undefined), CN=c1scc(C)n1/N=C/c1ccc(O)c(O)c1O, Cc1cccc(N2C(S)=C(C#N)C(=O)NC2c2cccs2)c1 (centres undefined), c1csc(C2=Nn3c(nnc3-c3ccncc3)SC2)c1, CSc1n[nH]c2nc3c(c(=O)n12)C1(CCCC1)Cc1ccccc1-3, CC1CCN(C2(O)C(=O)Nc3ccc(Br)cc32)CC1 (centres undefined), CN1C2C=C3C(C#N)=C(N)C(C#N)(C#N)[C@@H](c4ccsc4)[C@@H]3C1CC2 (some centres undefined), CCOC(=O)c1c(NC(C)=O)sc2c(O)c(Br)cc(Br)c12, CCOC(=O)C1CCN(C(=O)Nc2ccc3nc(-c4ccco4)c(-c4ccco4)nc3c2)CC1, Nc1ccccc1N=c1ssnc1Cl, Cc1ccc(C(=O)N/N=C2/NC(=O)CC(C(=O)Nc3ccccc3)S2)cc1 (centres undefined), O=C(C1=NN(c2ccccc2)C2C(=O)N(c3ccccc3)C(=O)C12)c1ccccc1 (centres undefined), CC(C(=O)Nc1cc([N+](=O)[O-])ccc1Cl)N1CCN(c2ccc(O)cc2)CC1 (centres undefined), Cn1c(N)c(C(=O)COC(=O)c2cc(-c3ccco3)nc3ccccc23)c(=O)n(C)c1=O, O=C(NCCc1ccccc1)c1ccc2nc(-c3ccco3)c(-c3ccco3)nc2c1, Cc1ccc(C(=O)CCC(=O)Nc2ccc(Cl)c(S(=O)(=O)Nc3cccc(Cl)c3)c2)cc1, COc1ccc(C2C(C#N)=C(C)NC3=C2S(=O)(=O)c2ccccc23)cc1 (centres undefined), COC(=O)/C(=C/c1ccc(F)cc1)NC(C)=O, O=C(c1cnccn1)N1CCN(c2ccccc2F)CC1, COc1cccc2c(SCC(=O)N/N=C/c3ccccc3)cc(C)nc12, Cc1cc(N2CCN(C)CC2)nc2ccc(NC(=S)N3CCN(c4ccc(F)cc4)CC3)cc12, O=C(O)/C=C/C(=O)NNC(=O)c1ccc(Br)cc1, C1=CC2c3ccccc3NC(c3ccncc3)C2C1 (centres undefined), O=C(C1=NN[C@@H]2C(=O)N(c3ccccc3C(F)(F)F)C(=O)[C@H]12)c1ccc2ccccc2n1, CCN(CC)c1ccc(NC(=O)c2ccc(=O)[nH]c2)cc1S(=O)(=O)Nc1ccccc1OC

From PubChem BioAssay AID1329 (NMMLSC, 2008)
